The record followed here is patent US7528138B2, “Pyrazolo[1,5-a]pyrimidines useful as inhibitors of protein kinases” (Vertex Pharmaceuticals Incorporated, priority 2004, dated 2009).

Bounds are passed on as bounds.

Common to all, as to format: biochemical
Assay [1] addresses T1, Itk (Homo sapiens, UniProt Q08881).
T1 sequence (Q08881 1-620): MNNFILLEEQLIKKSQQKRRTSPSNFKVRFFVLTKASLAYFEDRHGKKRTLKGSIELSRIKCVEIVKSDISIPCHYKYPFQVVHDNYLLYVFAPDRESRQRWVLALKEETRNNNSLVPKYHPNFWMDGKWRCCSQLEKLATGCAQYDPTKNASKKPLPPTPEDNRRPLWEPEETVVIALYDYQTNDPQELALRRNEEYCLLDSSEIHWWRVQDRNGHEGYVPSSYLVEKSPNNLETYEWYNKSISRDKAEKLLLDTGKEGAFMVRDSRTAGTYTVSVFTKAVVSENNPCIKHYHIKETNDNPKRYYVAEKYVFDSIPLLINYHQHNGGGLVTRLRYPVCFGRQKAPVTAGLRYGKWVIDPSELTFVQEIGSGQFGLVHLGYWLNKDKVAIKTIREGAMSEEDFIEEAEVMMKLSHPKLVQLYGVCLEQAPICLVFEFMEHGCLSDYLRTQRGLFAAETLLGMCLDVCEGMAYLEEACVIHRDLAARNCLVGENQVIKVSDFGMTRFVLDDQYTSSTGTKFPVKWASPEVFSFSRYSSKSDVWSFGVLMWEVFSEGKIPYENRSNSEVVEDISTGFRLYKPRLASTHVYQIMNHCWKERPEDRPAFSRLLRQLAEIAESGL
Kind of assay: ITK Inhibition Assay (Radiometric), radioactive-phosphate incorporation. As to conditions: enzyme inhibition data (Ki), Table 11; radiometric or UV assay not stated. In a few lines: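 Radiometric 33P incorporation into SAM68 peptide (D332-443) with filter capture and scintillation counting; 10 min pre-incubation then 10 min reaction at 25° C. IC50 format: 30 nM Itk, 15 μM ATP, 2 μM peptide, HEPES pH 7.5. Ki(app) format: 50 nM Itk, 7.5 μM ATP, 3 μM peptide, MOPS pH 7.0.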

The target in assay [2] is T2, Aurora-2 (Homo sapiens, UniProt O14965).
T2 sequence (O14965 1-403): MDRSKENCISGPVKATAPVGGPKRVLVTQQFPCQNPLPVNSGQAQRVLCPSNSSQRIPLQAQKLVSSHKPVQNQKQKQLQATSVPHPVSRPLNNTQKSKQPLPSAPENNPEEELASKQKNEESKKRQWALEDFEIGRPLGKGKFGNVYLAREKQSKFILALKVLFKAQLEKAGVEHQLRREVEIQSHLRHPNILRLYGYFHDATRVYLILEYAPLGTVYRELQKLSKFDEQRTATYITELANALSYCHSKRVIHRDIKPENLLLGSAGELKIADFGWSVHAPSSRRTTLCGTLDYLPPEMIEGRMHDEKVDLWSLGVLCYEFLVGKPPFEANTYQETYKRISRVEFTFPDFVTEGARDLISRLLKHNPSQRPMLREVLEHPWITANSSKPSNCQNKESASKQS
Put plainly: Aurora-A (Aurora-2) Inhibition Assay, coupled enzyme assay. As to conditions: enzyme inhibition data (Ki), Table 11; read-out: AurA Ki. The procedure: Compounds are screened for their ability to inhibit Aurora-2 using a standard coupled enzyme assay (Fox et al., Protein Sci., (1998) 7, 2249). Assays are carried out in a mixture of 100 mM Hepes (pH7.5), 10 mM MgCl2, 1 mM DTT, 25 mM NaCl, 2.5 mM phosphoenolpyruvate, 300 μM NADH, 30 μg/ml pyruvate kinase and 10 μg/ml lactate dehydrogenase. Final substrate concentrations in the assay are 400 μM ATP (Sigma Chemicals) and 570 μM peptide (Kemptide, American Peptide, Sunnyvale, Calif.). Assays are carried out at 30° C. and in the presence of 40 nM Aurora-2.
An assay stock buffer solution is prepared containing all of the reagents listed above, with the exception of Aurora-2 and the test compound of interest. 55 μl of the stock solution is placed in a 96 well plate followed by addition of 2 μl of DMSO stock containing serial dilutions of the test compound (typically starting from a final concentration of 7.5 μM). The plate is preincubated for 10 minutes at 30° C. and the reaction initiated by addition of 10 μl of Aurora-2. Initial reaction rates are determined with a Molecular Devices SpectraMax Plus plate reader over a 10 minute time course. IC50 and Ki data are calculated from non-linear regression analysis using the Prism software package (GraphPad Prism version 3.0cx for Macintosh, GraphPad Software, San Diego Calif., USA).

Assay [3] has as its target c-Met (Homo sapiens, UniProt P08581). Kind of assay: c-Met Inhibition Assay, coupled enzyme system. The settings on record: enzyme inhibition data (Ki), Table 11. The procedure, abridged:
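Pyruvate kinase/lactate dehydrogenase-coupled NADH assay in HEPES pH 7.5 with 80 nM c-Met, 200 μM ATP and 10 μM polyGluTyr at 30° C. Compound (0.006–12.5 μM final, 12-point) preincubated 10 min before ATP start; rates over 10 min gave Ki.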

c-Met, sequence (P08581 25-1390): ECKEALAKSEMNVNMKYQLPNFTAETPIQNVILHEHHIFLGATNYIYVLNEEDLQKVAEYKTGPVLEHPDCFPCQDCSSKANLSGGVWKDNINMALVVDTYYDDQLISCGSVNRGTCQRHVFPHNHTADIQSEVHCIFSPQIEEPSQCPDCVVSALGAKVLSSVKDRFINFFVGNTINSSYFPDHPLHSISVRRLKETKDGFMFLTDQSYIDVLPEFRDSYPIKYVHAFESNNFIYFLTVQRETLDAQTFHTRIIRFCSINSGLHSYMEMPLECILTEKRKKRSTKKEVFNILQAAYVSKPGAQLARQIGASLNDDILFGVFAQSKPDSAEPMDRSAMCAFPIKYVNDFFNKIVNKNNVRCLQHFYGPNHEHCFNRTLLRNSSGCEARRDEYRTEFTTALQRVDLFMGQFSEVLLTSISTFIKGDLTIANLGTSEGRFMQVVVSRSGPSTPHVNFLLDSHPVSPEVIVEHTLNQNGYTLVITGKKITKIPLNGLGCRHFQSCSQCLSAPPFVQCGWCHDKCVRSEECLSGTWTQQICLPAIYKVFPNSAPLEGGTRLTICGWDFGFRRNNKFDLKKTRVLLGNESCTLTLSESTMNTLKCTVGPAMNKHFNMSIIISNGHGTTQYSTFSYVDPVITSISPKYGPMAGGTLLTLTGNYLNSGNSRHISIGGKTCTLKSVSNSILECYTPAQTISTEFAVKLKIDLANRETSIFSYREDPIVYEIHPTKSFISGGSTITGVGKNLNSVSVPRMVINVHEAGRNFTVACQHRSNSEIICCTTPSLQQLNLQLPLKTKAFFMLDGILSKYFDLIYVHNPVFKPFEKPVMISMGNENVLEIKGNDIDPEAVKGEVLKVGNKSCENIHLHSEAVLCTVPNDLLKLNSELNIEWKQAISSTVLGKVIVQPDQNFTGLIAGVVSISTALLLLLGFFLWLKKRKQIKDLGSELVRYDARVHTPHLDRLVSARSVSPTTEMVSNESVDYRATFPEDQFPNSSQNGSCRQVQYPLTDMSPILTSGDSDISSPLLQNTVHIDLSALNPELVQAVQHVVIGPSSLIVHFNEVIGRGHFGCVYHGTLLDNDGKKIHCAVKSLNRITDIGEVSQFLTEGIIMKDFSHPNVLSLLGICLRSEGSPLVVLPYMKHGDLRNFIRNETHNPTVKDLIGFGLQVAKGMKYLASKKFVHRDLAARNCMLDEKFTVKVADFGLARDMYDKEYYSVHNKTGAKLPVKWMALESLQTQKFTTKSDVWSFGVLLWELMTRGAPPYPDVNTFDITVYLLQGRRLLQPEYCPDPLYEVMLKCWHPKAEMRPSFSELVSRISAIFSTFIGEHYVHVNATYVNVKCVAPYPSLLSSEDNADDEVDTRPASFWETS

For `CC(C)(C)OC(=O)NCc1ccc(-c2cnc3c(-c4ccccn4)c(N)nn3c2)cc1` [Compound V-192], the Ki in assay [1] and in assay [2] was < 500 nM each time.

Consider `Nc1nn2cc(-c3ccc(CN4CCCNCC4)cc3)cnc2c1-c1ccccn1` [Compound V-224], for which the Ki in assay [1], in assay [2] and in assay [3] was < 500 nM throughout.

The term Ki denotes the dissociation constant of the complex between target and ligand, obtained from inhibition or displacement.
